Assay results published in PubChem BioAssay AID1259407 (Chemical Carcinogenesis Research Information System (CCRIS), 2018).
Calls of active or inactive are those of the source. How the calls were made is not given here.

Tested on: CCRIS mutagenicity, Ames/micronucleus/aberration tests
Assay: CCRIS mutagenicity studies
[1] = Test System: AMES SALMONELLA TYPHIMURIUM, Strain/Indicator: TA98, Metabolic Activation: NONE, Method: PREINCUBATION
[2] = Test System: AMES SALMONELLA TYPHIMURIUM, Strain/Indicator: TA100, Metabolic Activation: NONE, Method: PREINCUBATION
[3] = Test System: AMES SALMONELLA TYPHIMURIUM, Strain/Indicator: TA1535, Metabolic Activation: NONE, Method: PREINCUBATION
[4] = Test System: AMES SALMONELLA TYPHIMURIUM, Strain/Indicator: TA1537, Metabolic Activation: NONE, Method: PREINCUBATION
[5] = Test System: AMES SALMONELLA TYPHIMURIUM, Strain/Indicator: TA100, Metabolic Activation: NONE, Method: STANDARD PLATE

O=C(O)C(=O)O
mutagenic call (Test System: AMES SALMONELLA TYPHIMURIUM, Strain/Indicator: TA97, Metabolic Activation: NONE, Method: PREINCUBATION): inactive; negative
mutagenic call (Test System: AMES SALMONELLA TYPHIMURIUM, Strain/Indicator: TA97, Metabolic Activation: RAT, LIVER, S-9, PHENOBARBITAL AND 5,6-BENZOFLAVONE, Method: PREINCUBATION): inactive; negative
mutagenic call (Test System: AMES SALMONELLA TYPHIMURIUM, Strain/Indicator: TA97, Metabolic Activation: S-9, Method: PREINCUBATION): inactive; negative
mutagenic call [1]: inactive; negative
mutagenic call (Test System: AMES SALMONELLA TYPHIMURIUM, Strain/Indicator: TA98, Metabolic Activation: RAT, LIVER, S-9, PHENOBARBITAL AND 5,6-BENZOFLAVONE, Method: PREINCUBATION): inactive; negative
mutagenic call (Test System: AMES SALMONELLA TYPHIMURIUM, Strain/Indicator: TA98, Metabolic Activation: RAT, LIVER, S-9, SODIUM PHENOBARBITAL AND 5,6-BENZOFLAVONE, Method: PREINCUBATION): inactive; negative
mutagenic call [2]: inactive; negative
mutagenic call (Test System: AMES SALMONELLA TYPHIMURIUM, Strain/Indicator: TA100, Metabolic Activation: NONE, Method: PREINCUBATION (11 HR GROWTH PERIOD FOR BACTERIA)): active; positive
mutagenic call (Test System: AMES SALMONELLA TYPHIMURIUM, Strain/Indicator: TA100, Metabolic Activation: RAT, LIVER, S-9, PCB, Method: PREINCUBATION (11 HR GROWTH PERIOD FOR BACTERIA)): inactive; negative
mutagenic call (Test System: AMES SALMONELLA TYPHIMURIUM, Strain/Indicator: TA100, Metabolic Activation: RAT, LIVER, S-9, PHENOBARBITAL AND 5,6-BENZOFLAVONE, Method: PREINCUBATION): inactive; negative
mutagenic call (Test System: AMES SALMONELLA TYPHIMURIUM, Strain/Indicator: TA100, Metabolic Activation: RAT, LIVER, S-9, SODIUM PHENOBARBITAL AND 5,6-BENZOFLAVONE, Method: PREINCUBATION): inactive; negative
mutagenic call (Test System: AMES SALMONELLA TYPHIMURIUM, Strain/Indicator: TA102, Metabolic Activation: NONE, Method: PREINCUBATION (5, 7 OR 11 HR GROWTH PERIOD FOR BACTERIA)): active; positive
mutagenic call (Test System: AMES SALMONELLA TYPHIMURIUM, Strain/Indicator: TA102, Metabolic Activation: RAT, LIVER, S-9, PCB, Method: PREINCUBATION (5 OR 7 HR GROWTH PERIOD FOR BACTERIA)): inactive; negative
mutagenic call (Test System: AMES SALMONELLA TYPHIMURIUM, Strain/Indicator: TA102, Metabolic Activation: RAT, LIVER, S-9, PHENOBARBITAL AND 5,6-BENZOFLAVONE, Method: PREINCUBATION): inactive; negative
mutagenic call (Test System: AMES SALMONELLA TYPHIMURIUM, Strain/Indicator: TA102, Metabolic Activation: RAT, LIVER, S-9, SODIUM PHENOBARBITAL AND 5,6-BENZOFLAVONE, Method: PREINCUBATION): inactive; negative
mutagenic call (Test System: AMES SALMONELLA TYPHIMURIUM, Strain/Indicator: TA102, Metabolic Activation: S-9, Method: PREINCUBATION): inactive; negative
mutagenic call (Test System: AMES SALMONELLA TYPHIMURIUM, Strain/Indicator: TA104, Metabolic Activation: NONE, Method: PREINCUBATION): inactive; negative
mutagenic call (Test System: AMES SALMONELLA TYPHIMURIUM, Strain/Indicator: TA104, Metabolic Activation: RAT, LIVER, S-9, PHENOBARBITAL AND 5,6-BENZOFLAVONE, Method: PREINCUBATION): inactive; negative
mutagenic call (Test System: AMES SALMONELLA TYPHIMURIUM, Strain/Indicator: TA104, Metabolic Activation: RAT, LIVER, S-9, SODIUM PHENOBARBITAL AND 5,6-BENZOFLAVONE, Method: PREINCUBATION): inactive; negative
mutagenic call [3]: inactive; negative
mutagenic call (Test System: AMES SALMONELLA TYPHIMURIUM, Strain/Indicator: TA1535, Metabolic Activation: RAT, LIVER, S-9, SODIUM PHENOBARBITAL AND 5,6-BENZOFLAVONE, Method: PREINCUBATION): inactive; negative
mutagenic call [4]: inactive; negative
mutagenic call (Test System: AMES SALMONELLA TYPHIMURIUM, Strain/Indicator: TA1537, Metabolic Activation: RAT, LIVER, S-9, SODIUM PHENOBARBITAL AND 5,6-BENZOFLAVONE, Method: PREINCUBATION): inactive; negative
mutagenic call (Test System: E. COLI, Strain/Indicator: WP2UVRA/PKM101, Metabolic Activation: NONE, Method: PREINCUBATION): inactive; negative
mutagenic call (Test System: E. COLI, Strain/Indicator: WP2UVRA/PKM101, Metabolic Activation: RAT, LIVER, S-9, SODIUM PHENOBARBITAL AND 5,6-BENZOFLAVONE, Method: PREINCUBATION): inactive; negative
mutagenic call (Test System: E. COLI, Strain/Indicator: WP2UVRA, Metabolic Activation: NONE, Method: PREINCUBATION): inactive; negative
mutagenic call (Test System: E. COLI, Strain/Indicator: WP2UVRA, Metabolic Activation: RAT, LIVER, S-9, SODIUM PHENOBARBITAL AND 5,6-BENZOFLAVONE, Method: PREINCUBATION): inactive; negative

CC1(C)S[C@@H]2[C@H](NC(=O)Cc3ccccc3)C(=O)N2[C@H]1C(=O)O
mutagenic call (Test System: AMES SALMONELLA TYPHIMURIUM, Strain/Indicator: TA98, Metabolic Activation: NONE, Method: STANDARD PLATE): inactive; negative
mutagenic call [5]: inactive; negative
mutagenic call (Test System: AMES SALMONELLA TYPHIMURIUM, Strain/Indicator: TA1537, Metabolic Activation: NONE, Method: STANDARD PLATE): inactive; negative
mutagenic call (Test System: E. COLI, Strain/Indicator: WP2 (HCR), Metabolic Activation: NONE, Method: STANDARD PLATE): inactive; negative

CC(CN(CC(=O)O)CC(=O)O)N(CC(=O)O)CC(=O)O (stereo unspecified)
mutagenic call (Test System: CHINESE HAMSTER V-79, Strain/Indicator: V-79/OUABAIN, Metabolic Activation: NONE, Method: STANDARD PLATE): active; positive
mutagenic call (Test System: UDS RODENT CELLS, Strain/Indicator: THY INCORP (NON-S-PHASE), Metabolic Activation: NONE, Method: AUTORADIOGRAPHY): active; positive

CC(C)(S)C(=O)N[C@@H](CS)C(=O)O
mutagenic call [1]: inactive; negative
mutagenic call (Test System: AMES SALMONELLA TYPHIMURIUM, Strain/Indicator: TA98, Metabolic Activation: RAT, LIVER, S-9, Method: PREINCUBATION): inactive; negative
mutagenic call [2]: inactive; negative
mutagenic call (Test System: AMES SALMONELLA TYPHIMURIUM, Strain/Indicator: TA100, Metabolic Activation: RAT, LIVER, S-9, Method: PREINCUBATION): inactive; negative
mutagenic call [3]: inactive; negative
mutagenic call (Test System: AMES SALMONELLA TYPHIMURIUM, Strain/Indicator: TA1535, Metabolic Activation: RAT, LIVER, S-9, Method: PREINCUBATION): inactive; negative
mutagenic call [4]: inactive; negative
mutagenic call (Test System: AMES SALMONELLA TYPHIMURIUM, Strain/Indicator: TA1537, Metabolic Activation: RAT, LIVER, S-9, Method: PREINCUBATION): inactive; negative
mutagenic call (Test System: AMES SALMONELLA TYPHIMURIUM, Strain/Indicator: TA1538, Metabolic Activation: NONE, Method: PREINCUBATION): inactive; negative
mutagenic call (Test System: AMES SALMONELLA TYPHIMURIUM, Strain/Indicator: TA1538, Metabolic Activation: RAT, LIVER, S-9, Method: PREINCUBATION): inactive; negative
mutagenic call (Test System: E. COLI, Strain/Indicator: WP2, Metabolic Activation: NONE, Method: PREINCUBATION): inactive; negative
mutagenic call (Test System: E. COLI, Strain/Indicator: WP2 UVRA, Metabolic Activation: NONE, Method: PREINCUBATION): inactive; negative
mutagenic call (Test System: E. COLI, Strain/Indicator: WP2 UVRA, Metabolic Activation: RAT, LIVER, S-9, Method: PREINCUBATION): inactive; negative

O=[N+]([O-])C(Cl)(Cl)Br
mutagenic call (Test System: Ames Salmonella typhimurium, Strain/Indicator: RSJ100, Metabolic Activation: None, Method: Standard plate): inactive; negative
mutagenic call (Test System: Ames Salmonella typhimurium, Strain/Indicator: RSJ100, Metabolic Activation: Rat, Liver, S-9, Aroclor, Method: Standard plate): active; positive
mutagenic call (Test System: Ames Salmonella typhimurium, Strain/Indicator: TA98, Metabolic Activation: None, Method: Standard plate): inactive; negative
mutagenic call (Test System: Ames Salmonella typhimurium, Strain/Indicator: TA98, Metabolic Activation: Rat, Liver, S-9, Aroclor, Method: Standard plate): inactive; negative
mutagenic call (Test System: Ames Salmonella typhimurium, Strain/Indicator: TA100, Metabolic Activation: None, Method: Standard plate): inactive; negative
mutagenic call (Test System: Ames Salmonella typhimurium, Strain/Indicator: TA100, Metabolic Activation: Rat, Liver, S-9, Aroclor, Method: Standard plate): inactive; negative
mutagenic call (Test System: Ames Salmonella typhimurium, Strain/Indicator: TA104, Metabolic Activation: None, Method: Standard plate): active; positive
mutagenic call (Test System: Ames Salmonella typhimurium, Strain/Indicator: TA104, Metabolic Activation: Rat, Liver, S-9, Aroclor, Method: Standard plate): active; positive
mutagenic call (Test System: Ames Salmonella typhimurium, Strain/Indicator: TPT100, Metabolic Activation: None, Method: Standard plate): inactive; negative

O=C1C=CC(=C(Cl)Cl)O1
mutagenic call [5]: active; positive
